The record followed here is patent US11306102B2, “1,3-di-substituted ketene compound and application thereof” (BEBETTER MED INC., priority 2017, dated 2022).

The structures appear in SMILES notation.

Data set [1] addresses T1, PPARα (Homo sapiens, UniProt Q07869).
T1 construct: expressed in transfected cells; host or cells: Hela cells
T1 sequence (Q07869 1-468): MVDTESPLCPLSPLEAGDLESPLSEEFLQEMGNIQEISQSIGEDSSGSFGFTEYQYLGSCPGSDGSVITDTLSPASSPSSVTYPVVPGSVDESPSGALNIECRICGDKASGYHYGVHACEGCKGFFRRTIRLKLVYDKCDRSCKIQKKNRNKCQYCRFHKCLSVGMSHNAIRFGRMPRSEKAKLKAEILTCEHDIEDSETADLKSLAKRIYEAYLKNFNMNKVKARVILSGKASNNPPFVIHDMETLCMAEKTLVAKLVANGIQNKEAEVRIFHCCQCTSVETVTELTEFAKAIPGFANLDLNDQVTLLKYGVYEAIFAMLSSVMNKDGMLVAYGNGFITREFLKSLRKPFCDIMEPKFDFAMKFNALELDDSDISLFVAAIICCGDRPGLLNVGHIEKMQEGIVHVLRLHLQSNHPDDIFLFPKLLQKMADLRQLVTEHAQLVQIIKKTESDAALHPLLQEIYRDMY
Description: Hela cell/luciferase reporter gene method, PPARα agonist activity. It counts as cell-based. The settings on record: for EC50: Hela cells, pPPRE3-TK-Luciferase reporter, 24 hrs incubation, read-out: agonistic activity on PPAα (EC50); for ratio of PPARγ/PPARα activated (EC50 ratio): under the experimental conditions of the present disclosure. The protocol: (§1) This example measures the biological activity of a PPAR agonist using the Hela cell/luciferase reporter gene method.
(§2) The target plasmids PCMV PPARα (Ampicillin+), PCMV PPARγ (Ampicillin+), PCMV PPARδ (Ampicillin+), and pPPRE3-TK-Luciferase (Ampicillin+) were introduced into DH5a competent cells by heat shock treatment, respectively. After being incubated for 1 hour at 37° C. with shaking (180 rpm), the cells were inoculated on LB agar solid medium containing antibiotic Ampicillin, and invertedly cultured at 37° C. for 12-16 hours. Then the monoclonal colony cultured on the medium was taken and inoculated into LB liquid medium for expanded culture. The desired plasmid was extracted from the resulting bacterial solution with a Plasmid Midi Kit (Qiagen; #12143). The plasmid obtained by centrifugation was suspended in TE buffer, and the plasmid concentration was measured and the mixture was stored at −20° C. Hela cells in the exponential phase were seeded in 6-well plates (8-10^5 cells/well), and after 6-8 hours of culture, the cells were transfected using Lipofectamine® 3000 Transfection Reagent (Invitrogen; #L3000015). A plasmid containing a PPAR binding site (peroxisome proliferator response element, PPRE) and a firefly luciferase gene (pPPRE3-TK-Luciferase) and PPAR expression vector were co-transfected into a Hela cell with a total amount of plasmid DNA of 2.5 ug (the mass ratio of each PPAR expression vector is pPPRE:PPARα=6:1, pPPRE:PPARδ=8:1, and pPPRE:PPARγ=2:1) to construct a drug screening cell model for PPAR agonists. PPAR was binded to the ligand and then binded to the peroxisome proliferator response element (PPRE), thereby initiating downstream firefly luciferase expression and its expression intensity was directly proportional to the degree of PPAR activation. The cells after 24 hours transfection were prepared into a cell suspension with a cell concentration of […] by a complete culture solution, and seeded into a 96-well plate with 100 ul per well. After overnight culture, the medium was changed to a medium containing 1% FBS. 10 mM candidate compound stock (1000×) were 4-fold diluted in DMSO for 8 points, then supplemented with medium containing 1% FBS to a final concentration of 50 uM (5×) by addition of 25 μl of 5× compound diluent to each well in different concentration gradients and incubated under 37° C., 5% CO2 incubator for 24 hrs. The 96-well plate was taken out and 30 μl of Bright-Glo™ Luciferase Assay System (Promega #E2620) was added to each well. The Luciferase luminescence intensity was measured by a SynergyH1 full-function microplate detector. The obtained data was used to calculate EC50 using GraphPad Prism 5.0 software to determine the biological activity of the compound.
(§3) The agonistic activity of the compounds synthesized in Examples 1-41 on PPAR is represented by EC50 (see Table 1). EC50 refers to the drug concentration at which the compound has a 50% increase in the agonistic activity of the measured PPAR. The compound numbers in Table 1 correspond to the compound numbers in Examples 1-41.

Data set [2] deals with T2, PPARγ (Homo sapiens, UniProt P37231).
T2 construct: expressed in transfected cells; host or cells: Hela cells
T2 sequence (P37231 1-505): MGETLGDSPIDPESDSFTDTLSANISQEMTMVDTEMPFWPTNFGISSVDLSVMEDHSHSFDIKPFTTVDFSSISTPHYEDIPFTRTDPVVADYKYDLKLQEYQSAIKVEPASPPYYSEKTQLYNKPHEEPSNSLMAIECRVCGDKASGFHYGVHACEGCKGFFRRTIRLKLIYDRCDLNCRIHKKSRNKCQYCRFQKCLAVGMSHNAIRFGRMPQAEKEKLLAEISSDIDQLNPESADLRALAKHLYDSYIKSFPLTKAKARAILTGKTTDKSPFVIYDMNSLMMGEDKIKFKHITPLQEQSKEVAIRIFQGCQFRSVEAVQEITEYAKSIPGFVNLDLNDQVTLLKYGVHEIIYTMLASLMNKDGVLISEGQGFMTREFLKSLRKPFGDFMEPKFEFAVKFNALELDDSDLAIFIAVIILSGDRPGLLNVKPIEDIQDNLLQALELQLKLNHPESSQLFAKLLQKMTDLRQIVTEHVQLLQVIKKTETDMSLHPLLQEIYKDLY
Description: Hela cell/luciferase reporter gene method, PPARγ agonist activity. The following applies: for EC50: Hela cells, pPPRE3-TK-Luciferase reporter, 24 hrs incubation, read-out: agonistic activity on PPARγ (EC50). It counts as cell-based. On the procedure:
as §1, §2, §3

A short description of data set [3]: Pharmacokinetic (PK) experiments after intragastric administration in rats. Format: in vivo, SD rats. The settings on record: for AUC(0-inf) / AUC(0-t) / Cmax / Tmax / half-life: male, SD, rat, plasma, po, intragastric administration 20 mg/kg; for half-life: read-out: Terminal T1/2 (converted). The protocol: Male SD rats, weighing 250-300 grams, were fasted overnight before testing. The test compound was dissolved in 30% sulfobutyl-R-cyclodextrin (SBE-β-CD) and administered intragastrically at a dose of 20 mg/kg. Blood was collected 15 minutes, 30 minutes, and 1, 2, 3, 4, […] and 24 hours after the administration. About 0.3 ml of blood was collected at each time point, placed in a centrifuge tube containing K2-EDTA (dipotassium ethylenediamine tetraacetate) and centrifuged (2,000 g, 10 minutes, 4° C.) to take the plasma, which was stored in an ultra-low temperature refrigerator at −80° C. A 50 μL plasma sample was mixed with 5 μl of internal standard (IS) and extracted with ethyl acetate. The residue was redissolved in acetonitrile after drying under vacuum. The sample was filtered and injected into an LC-MS/MS for analysis.

For the molecule `CSc1ccc2cc(C(=O)/C=C/c3cc(Cl)c(OC(C)(C)C(=O)O)c(Cl)c3)oc2c1` [Compound 100, (E)-2-(2,6-dichloro-4-(3-(6-(methylthio)benzofuran-2-yl)-3-oxoprop-1-en-1-yl)phenoxy)-2-methylpropanoic acid], in data set [1], the EC50 was found to be 2 nM and the “ratio of PPARγ/PPARα activated (EC50 ratio)” value is recorded as 237.55. In addition, in data set [2], the 50% effective concentration (EC50) was 475 nM and the “activation of PPARγ compared with Elafibranor (in words)” value is listed as “significantly reduced”. In data set [3], the AUC(0-inf) is 14000 ng·h/mL, the AUC(0-t) was found to be 13800 ng·h/mL, the Cmax came out at 7730 ng/mL and the Tmax turned out to be 0.25 h. In data set [3], the half-life was 4.41 h, the “absorption after oral administration compared with Elafibranor (in words)” value is recorded as “good absorption”, the “blood exposure after oral administration compared with Elafibranor (in words)” value was “highly effective blood exposure” and the “half-life after oral administration compared with Elafibranor (in words)” value (“half-life … compared with Elafibranor (in words)” for short) is reported as “significantly prolonged half-life”.

For the molecule `CSc1ccc2c(C)c(C(=O)/C=C/c3cc(Cl)c(OC(C)(C)C(=O)O)c(Cl)c3)oc2c1` [Compound 103, (E)-2-(2,6-dichloro-4-(3-(3-methyl-6-(methylthio)benzofuran-2-yl)-3-oxoprop-1-en-1-yl)phenoxy)-2-methylpropanoic acid], in data set [1], the EC50 worked out at 8.7 nM and the “ratio of PPARγ/PPARα activated (EC50 ratio)” value is recorded as 90.59. Besides, in data set [2], the EC50 was found to be 788 nM and the “activation of PPARγ compared with Elafibranor (in words)” value is “significantly reduced”. Besides, in data set [3], the AUC(0-inf) is 50900 ng·h/mL, the AUC(0-t) came to 50400 ng·h/mL, the Cmax turned out to be 5030 ng/mL and the Tmax was 4.08 h. Moreover, in data set [3], the half-life was 3.28 h, the “absorption after oral administration compared with Elafibranor (in words)” value is “good absorption”, the “blood exposure after oral administration compared with Elafibranor (in words)” value was “highly effective blood exposure” and the “half-life … compared with Elafibranor (in words)” value is on record as “significantly prolonged half-life”.

For `CCc1c(C(=O)/C=C/c2cc(C)c(OC(C)(C)C(=O)O)c(C)c2)oc2cc(SC)ccc12` [Compound 63, (E)-2-(4-(3-(3-ethyl-6-(methylthio)benzofuran-2-yl)-3-oxoprop-1-en-1-yl)-2,6-dimethylphenoxy)-2-methylpropanoic acid], in data set [1], the EC50 is 19.2 nM. Moreover, in data set [2], the EC50 amounted to 95.5 nM. Also, in data set [3], the total exposure AUC(0-inf) came out at 1720 ng·h/mL, the AUC(0-t) is 1700 ng·h/mL, the highest level (Cmax) was 812 ng/mL and the Tmax is 0.25 h. Also, in data set [3], the half-life is 4.3 h, the “absorption after oral administration compared with Elafibranor (in words)” value is given as “good absorption”, the “blood exposure after oral administration compared with Elafibranor (in words)” value is listed as “highly effective blood exposure” and the “half-life … compared with Elafibranor (in words)” value is listed as “significantly prolonged half-life”.

For `CSc1ccc2cc(C(=O)/C=C/c3cc(C)c(OC(C)(C)C(=O)O)c(C)c3)sc2c1` [Compound 81, (E)-2-(2,6-dimethyl-4-(3-(6-(methylthio)benzo[b]thiophen-2-yl)-3-oxoprop-1-en-1-yl)phenoxy)-2-methylpropanoic acid], the EC50 in data set [1] came out at 24.9 nM. Also, in data set [2], the EC50 was found to be 94.1 nM. In addition, in data set [3], the AUC(0-inf) worked out at 811 ng·h/mL, the AUC(0-t) is 806 ng·h/mL, the Cmax stood at 302 ng/mL and the Tmax was 0.25 h. Besides, in data set [3], the half-life was 3.35 h, the “absorption after oral administration compared with Elafibranor (in words)” value is listed as “good absorption”, the “blood exposure after oral administration compared with Elafibranor (in words)” value is “highly effective blood exposure” and the “half-life … compared with Elafibranor (in words)” value is recorded as “significantly prolonged half-life”.

For `CSc1ccc(C(=O)/C=C/c2cc(C)c(OC(C)(C)C(=O)O)c(C)c2)c2occc12` [Compound 5, (E)-2-(2,6-dimethyl-4-(3-(4-(methylthio)benzofuran-7-yl)-3-oxoprop-1-en-1-yl)phenoxy)-2-methylpropanoic acid], the EC50 in data set [1] was determined as 24.4 nM. Also, the EC50 in data set [2] was 26.2 nM. In data set [3], the total exposure AUC(0-inf) amounted to 3240 ng·h/mL, the AUC(0-t) was determined as 3110 ng·h/mL, the Cmax worked out at 2850 ng/mL and the Tmax came to 0.25 h. In data set [3], the half-life was 12.3 h, the “absorption after oral administration compared with Elafibranor (in words)” value is “good absorption”, the “blood exposure after oral administration compared with Elafibranor (in words)” value was “highly effective blood exposure” and the “half-life … compared with Elafibranor (in words)” value is “significantly prolonged half-life”.

Consider `CCSc1ccc2c(C)c(C(=O)/C=C/c3cc(C)c(OC(C)(C)C(=O)O)c(C)c3)oc2c1` [Compound 74, (E)-2-(4-(3-(6-(ethylthio)-3-methylbenzofuran-2-yl)-3-oxoprop-1-en-1-yl)-2,6-dimethylphenoxy)-2-methylpropanoic acid], for which the EC50 in data set [1] worked out at 13.9 nM; in data set [2], 29.3 nM.

`CCSc1ccc(C(=O)/C=C/c2cc(C)c(OC(C)(C)C(=O)O)c(C)c2)c2occc12` [Compound 6, (E)-2-(4-(3-(4-(ethylthio)benzofuran-7-yl)-3-oxoprop-1-en-1-yl)-2,6-dimethylphenoxy)-2-methylpropanoic acid]: the EC50 amounted to 9.6 nM in data set [1] and 62.6 nM in data set [2].

For the molecule `CSc1ccc(C(=O)/C=C/c2cc(C)c(OC(C)(C)C(=O)O)c(C)c2)c2ccoc12` [Compound 27, (E)-2-(2,6-dimethyl-4-(3-(7-(methylthio)benzofuran-4-yl)-3-oxoprop-1-en-1-yl)phenoxy)-2-methylpropanoic acid], the concentration giving a half-maximal response (EC50) in data set [1] is 59.1 nM; in data set [2] it was 124 nM.

As for `CSc1cccc2oc(C(=O)/C=C/c3cc(C)c(OC(C)(C)C(=O)O)c(C)c3)cc12` [Compound 60, (E)-2-(2,6-dimethyl-4-(3-(4-(methylthio)benzofuran-2-yl)-3-oxoprop-1-en-1-yl)phenoxy)-2-methylpropanoic acid], the 50% effective concentration (EC50) turned out to be 46.7 nM in data set [1] and 92.3 nM in data set [2].
